Laboratory results from patent EP1321467A2, “High affinity inhibitors for target validation and uses thereof” (Princeton University, priority 1999, dated 2000).
Where two headings read alike, the source gives them in different places.

How the values were obtained:
[1] = target: T1, GST-XD4(V323A, I338A) (Rous sarcoma virus subgroup A, UniProt P00524, DEL77-225/I338A/V323A); assay type: biochemical; details: RR-Src 1 mM, 37°C, pH 8.0
T1 construct: double alanine mutant of the v-Src catalytic domain, (the XD4 fragment) were made as glutathione S-transferase (GST) fusion proteins (GST-XD4); made in house; host or cells: E. coli (DH5a), pGEX-KT
Protocol: (§1) Kinetic constants were determined by analysis of Lineweaver-Burk plots of the rate data (64). […]

[2] = test system: GST-XD4(V323A, I338A); assay type: biochemical
Protocol: as §1

[3] = target: T1, GST-XD4(V323A, I338A); assay type: biochemical; details: nucleotide saturated; read-out: KM for RR-Src
[4] = test system: wild type protein kinase; assay: In vitro kinase reactions with radiolabeled nucleotide in murine lymphocyte lysates; assay type: biochemical; details: 100 µM, 37°C, 10 min, autoradiogram
Protocol: For this it is preferably that no wild-type kinase, including ser/thr specific kinase (which carry out the bulk of cellular phosphorylation, as only 0.03% of all phosphoamino acids are tyrosine) (65), substantially accept the synthetic substrate. To establish that [γ-^32P]
These assays were performed in a manner similar to the procedure set forth in Example 2, with the exception of the use of radiolabeled [γ-^32P] […] Proteins were separate by 12.5% SDS-PAGE. The gel was soaked in 10% acetic acid, 10% isopropanol for 1 h. after which it was dried in a gel dryer and exposed to Biomax MS film (Kodak # 111-1681) for 1 h.
The results are shown in Figure 5(b), which is an autoradiogram showing the level of phosphorylation in hypotonically lysed murine lymphocytes with [γ-^32P] […] In principle, the ability to follow one protein kinase's activity in the presence of all other cellular kinase would allow for the identification of the direct kinase targets in a particular cell type by using membrane permeabilization (66) and a cell permeable form of A*TP to introduce [γ-^32P] A*TP into cells (67).

[5] = test system: GST-XD4; assay: Kinetics for phosphate donor substrates; assay type: biochemical; details: RR-Src 1 mM, 37°C, pH 8.0
Protocol: as §1

[6] = target: T2, Cdc28·MBP-C1b2 (Saccharomyces cerevisiae, UniProt P00546); assay: ATP kinetics, Histone H1 phosphorylation; assay type: biochemical; details: read-out: ATP Kinetics Km; Eadie-Hofstee
T2 construct: His6 (C); made in house; host or cells: Sf9 insect cells, baculovirus, co-infected with Cak1-HA3 (Cdc28-His6); bacteria (MBP-Clb2)
T2 sequence (P00546 whole entry): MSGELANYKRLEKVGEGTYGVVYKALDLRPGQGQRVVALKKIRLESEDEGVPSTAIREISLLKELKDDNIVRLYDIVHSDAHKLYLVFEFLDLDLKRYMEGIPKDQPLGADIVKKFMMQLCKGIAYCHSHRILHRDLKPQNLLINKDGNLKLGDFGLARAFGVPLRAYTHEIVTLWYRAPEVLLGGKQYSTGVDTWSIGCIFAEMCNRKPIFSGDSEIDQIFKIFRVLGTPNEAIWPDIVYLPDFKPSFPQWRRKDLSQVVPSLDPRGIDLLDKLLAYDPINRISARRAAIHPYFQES
T2 sequence (P24869 whole entry partner): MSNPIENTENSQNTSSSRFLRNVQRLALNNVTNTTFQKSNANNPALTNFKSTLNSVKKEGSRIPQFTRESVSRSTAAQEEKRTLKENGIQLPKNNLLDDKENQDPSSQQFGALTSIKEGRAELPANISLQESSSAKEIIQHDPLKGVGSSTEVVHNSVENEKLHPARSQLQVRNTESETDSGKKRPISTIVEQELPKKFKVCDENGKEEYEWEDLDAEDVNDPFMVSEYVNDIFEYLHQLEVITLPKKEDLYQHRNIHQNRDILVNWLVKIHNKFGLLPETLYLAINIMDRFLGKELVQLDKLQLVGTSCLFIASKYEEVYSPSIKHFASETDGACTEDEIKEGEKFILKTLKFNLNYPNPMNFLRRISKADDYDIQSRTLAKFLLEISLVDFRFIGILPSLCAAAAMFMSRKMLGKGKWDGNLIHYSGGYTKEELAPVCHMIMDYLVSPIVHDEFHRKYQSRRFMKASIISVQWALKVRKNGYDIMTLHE

[7] = test system: GST-XD4; details: read-out: KM for RR-Src; nucleotide saturated
[8] = target: T3, Cdc28-as1·MBP-C1b2 (Saccharomyces cerevisiae, UniProt P00546, F88G); details: Eadie-Hofstee
T3 sequence (P00546 whole entry F88G): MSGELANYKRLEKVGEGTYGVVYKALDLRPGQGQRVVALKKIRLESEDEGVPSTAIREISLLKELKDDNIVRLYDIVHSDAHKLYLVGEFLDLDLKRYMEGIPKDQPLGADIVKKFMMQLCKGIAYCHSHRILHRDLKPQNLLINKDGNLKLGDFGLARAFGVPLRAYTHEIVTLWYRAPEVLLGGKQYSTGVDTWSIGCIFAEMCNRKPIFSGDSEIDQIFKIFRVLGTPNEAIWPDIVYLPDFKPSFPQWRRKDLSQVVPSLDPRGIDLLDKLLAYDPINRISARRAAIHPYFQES
T3 sequence (P24869 whole entry, further chain): as the sequence (P24869 whole entry partner) above

[9] = target: T4, I338G v-Src (Rous sarcoma virus subgroup A, UniProt P00524, DEL77-225/I338G); assay: biochemical; assay type: biochemical
T4 construct: catalytic domain of the target kinase, I338G v-Src, which was expressed in bacteria and purified as a glutathione-S-transferase (GST) fusion protein; made in house; host or cells: E. coli DH5a, pGEX-KT

[10] = target: T5, WT v-Src (Rous sarcoma virus subgroup A, UniProt P00524, DEL77-225); assay: biochemical; assay type: biochemical
T5 construct: glutathione-S-transferase fusion proteins of wild type v-Src catalytic domain, I338G v-Src SH1, and WT Fyn into the pGEX-KT plasmid; GST (N); made in house; host or cells: E. coli DH5a, pGEX-KT

[11] = target: T6, WT Fyn (Homo sapiens, UniProt P06241); assay: In vitro kinase inhibition assay; assay type: biochemical; details: Table 3
T6 construct: GST (N); made in house; host or cells: E. coli DH5a, pGEX-KT
T6 sequence (P06241 1-534 isoform P06241-2): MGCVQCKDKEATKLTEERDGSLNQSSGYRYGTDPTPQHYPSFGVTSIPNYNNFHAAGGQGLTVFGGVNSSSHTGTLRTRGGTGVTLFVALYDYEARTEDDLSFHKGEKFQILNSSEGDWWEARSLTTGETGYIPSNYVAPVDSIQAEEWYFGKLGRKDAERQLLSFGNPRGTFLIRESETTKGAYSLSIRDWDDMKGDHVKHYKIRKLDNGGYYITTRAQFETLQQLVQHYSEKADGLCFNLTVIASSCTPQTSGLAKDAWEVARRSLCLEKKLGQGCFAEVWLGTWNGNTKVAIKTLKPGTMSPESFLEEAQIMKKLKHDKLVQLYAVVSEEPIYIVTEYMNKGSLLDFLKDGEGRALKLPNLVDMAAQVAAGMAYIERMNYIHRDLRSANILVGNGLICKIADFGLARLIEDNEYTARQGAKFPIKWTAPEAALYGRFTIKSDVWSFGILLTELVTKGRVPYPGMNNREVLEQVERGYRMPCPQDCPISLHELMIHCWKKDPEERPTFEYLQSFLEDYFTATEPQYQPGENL

[12] = target: T2, Cdc28·MBP-C1b2; assay: 1-NM-PP1 IC50, Histone H1 phosphorylation; assay type: biochemical
Protocol: (§2) Purification of Cdc28-His6, Cdc28-as1-His6, MBP-Clb2: Lysate was prepared from insect cells co-infected with baculoviruses encoding Cdc28-His6 or Cdc28-as1-His6 and Cak1-HA3 (151). Cdc28-His6 and Cdc28-as1-His6 were purified by metal affinity chromatography as described (152), followed by […]. MBP-Clb2 was purified from lysates of bacteria expressing MBP-Clb2 (a gift of R. Deshaies) on an amylose column (NEBL), followed by anion-exchange chromatography (Pharmacia Q Sepharose Fast Flow).
(§3) Phosphate incorporation was determined at each inhibitor concentration by scintillation counting.

[13] = test system: cdc28-as1 strain; assay: Yeast growth; assay type: cell-based, Saccharomyces cerevisiae; details: Saccharomyces cerevisiae, read-out: inhibitor concentration at which growth was inhibited 50%
[14] = test system: wild-type cells; assay: Yeast growth; assay type: cell-based, Saccharomyces cerevisiae; details: 50,000 nM
[15] = test system: wild-type cells; assay: Genome-wide transcription, oligonucleotide microarray; assay type: cell-based, Saccharomyces cerevisiae; details: 500 nM, 30 minutes
Protocol: Changes were deemed significant if they were greater than or equal to 2-fold or if the transcript changed present/absent status (as indicated by Affymetrix software) in the following comparisons: for non-specific drug effects: CDC28 + 1 -NM-PP1 vs CDC28: for cdc28-as1 effects: cdc28-as1 vs. CDC28.
Next, the effects of the inhibitor 1-NM-PP1 on cell growth and morphology were analyzed.

[16] = test system: cdc28-as1 cells; assay: as above; assay type: cell-based, Saccharomyces cerevisiae; details: 500 nM, two hours, asynchronous cells
[17] = test system: cdc28-as1 cells; assay: Cell cycle analysis, DNA content and morphology; assay type: cell-based, Saccharomyces cerevisiae; details: 500 nM, cells arrested in late mitosis with cdc15-2
Protocol: DNA flow cytometry: Approximately 1x10^7 cells for each sample were fixed in 70% ethanol, resuspended in 50 mM Tris-HCl pH 8.0, briefly sonicated, digested with 2mg/ml RNase for 2 hours at 37°C, and resuspended in 0.2 ml protease solution (5 mg/ml pepsin. 0.5% concentrated HC1) and digested for 45 minutes at 37°C. DNA was stained with 1µM Sytox Green (Molecular Probes) in 50 mM Tris-HCl pH 7.5 and 20,000 cells from each sample were scanned with a FACScan FACS machine (Becton-Dickinson).
Thus, it appears possible to titrate the level of Cdc28-as1 activity in vivo, allowing the identification of cell cycle events that are differentially sensitive to decreases in the catalytic activity of Cdc28.
[…], initiation of budding and DNA synthesis were delayed about 30 to 60 minutes, while accumulation of the mitotic cyclin C1b2 was delayed 60 to 90 minutes. Cells went on to arrest with moderate C1b2 levels, highly hyperpolarized buds, and a G2/M DNA content, much like the arrest observed in asynchronous cells. […] Thus, cells treated with low concentrations of the inhibitor are slightly delayed during progression through early stages of the cell cycle, but eventually arrest due to a failure to assemble a mitotic spindle and enter mitosis.

[18] = target: T3, Cdc28-as1·MBP-C1b2; assay: 1-NM-PP1 IC50, Histone H1 phosphorylation; assay type: biochemical; set-up: His6 (C); made in house; host or cells: Sf9 insect cells, baculovirus, co-infected with Cak1-HA3 (Cdc28-as1-His6); bacteria (MBP-Clb2)
Protocol: as §2, §3

[19] = target: I338A v-Src (Rous sarcoma virus subgroup A, UniProt P00524, I338A); assay: biochemical
[20] = test system: fus3-as1 strain; assay: Yeast mating assay for Fus3 function; assay type: cell-based, Saccharomyces cerevisiae
[21] = test system: wild-type Fus3 expressing cells; assay: Yeast mating assay for Fus3 function; assay type: cell-based, Saccharomyces cerevisiae; details: all concentrations up to 50 µM
[22] = test system: S. cerevisiae expressing either wild-type Fus3, Fus3-asl, or no Fus3; assay: Non-selective cytotoxicity control, plating of mating cultures on YPD; details: any of the three strains
[23] = 1-NM-PP1 IC50 @ 10 µM ATP, 10 µM ATP
[24] = 1-NM-PP1 IC50 @ 1 mM ATP, 1 mM ATP

O=P(O)(O)OP(=O)(O)OP(=O)(O)OC[C@H]1O[C@@H](n2cnc3c(NC4CCCC4)ncnc32)[C@H](O)[C@@H]1O [ATP analog 8, N^6(cyclopentyl)ATP]
Km [1]: 15 ± 3 µM | kcat/KM lower than the kcat/KM of the wild-type kinase with ATP ([2]; mutant with analog versus wild type with ATP): 50 fold | Km [3]: 2100 ± 900 µM | radiolabeled phosphoproteins in the cell lysate [4]: no radiolabeled phosphoproteins

Nc1ncnc2c1ncn2[C@@H]1O[C@H](COP(=O)(O)OP(=O)(O)OP(=O)(O)O)[C@@H](O)[C@H]1O [ATP, adenosine triphosphate]
Km [5]: 12 ± 3 µM | Km [1]: 150 ± 20 µM | kcat [1]: 0.013 ± 0.0033 s⁻¹ | KM of the mutant higher than the KM of GST-XD4 ([2]; mutant versus GST-XD4): more than 10 fold | Km [6]: 35 µM | Km [7]: 2600 ± 900 µM | ATP Kinetics kcat [8]: 0.355 s⁻¹ | Km ([8]; read-out: ATP Kinetics Km): 322 µM

CC(C)(C)n1nc(Cc2cccc3ccccc23)c2c(N)ncnc21 [Compound 6h, 4-amino-1-(tert-butyl)-3-(1'-naphthylmethyl)pyrazolo[3,4-d]pyrimidine]
IC50 [9]: 4.2 nM | IC50 [10]: 28000 nM | IC50 [11]: 1100 nM | IC50 ([12]; 1 mM ATP, text b306, read-out: IC50): 44000 nM | IC50 [12, 23]: 22000 nM | IC50 [12, 24]: 44000 nM | IC50 [13]: 50 to 100 nM | increase of doubling times [14]: about 2 fold | genes with transcription changed greater than two-fold [15]: 6 genes | genes with […] or greater changes in transcription [16]: 104 genes | time to cyclin destruction and rebudding [17]: < 60 min | Cdc28-as1 more sensitive than wild-type Cdc28 ([18]; 1 mM ATP): about 15,000 fold | IC50 [18, 23]: 2 nM | IC50 [18, 24]: 2.9 nM | IC50 ([18]; IC50, 1 mM ATP, text b306): ~3 nM

CC(C)(C)n1nc(-c2cccc3ccccc23)c2c(N)ncnc21 [Compound 10]
IC50 [19]: 1 nM | decrease from equivalent control cells ([20]; 500 nM): 44 fold | diploid colonies ([20]; 500 nM): 1.7x10^3 cfu/ml | amount of diploids formed ([20]; 50 µM): indistinguishable from a fus3Δ strain | diploid colonies [21]: 0.6-1.1 x 10^5 cfu/ml | cfu/mL on YPD plates [22]: No significant decrease in cfu/mL on YPD plates
